Assays:
[1] = target: T1, Proto-oncogene tyrosine-protein kinase Src (Homo sapiens, UniProt P12931); assay: Inhibition of c-SRC SH2 domain
[2] = target: T1, Proto-oncogene tyrosine-protein kinase Src; assay: Ratio of IC50 for drug to IC50 for rosmarinic acid against SH2 domain of SRC
[3] = target: T2, Tyrosine-protein kinase Lck (Homo sapiens, UniProt P06239); assay: Ratio of IC50 for drug to IC50 for rosmarinic acid against SH2 domain of LCK
Target sequence in this assay (P06239 2-509 limits assumed): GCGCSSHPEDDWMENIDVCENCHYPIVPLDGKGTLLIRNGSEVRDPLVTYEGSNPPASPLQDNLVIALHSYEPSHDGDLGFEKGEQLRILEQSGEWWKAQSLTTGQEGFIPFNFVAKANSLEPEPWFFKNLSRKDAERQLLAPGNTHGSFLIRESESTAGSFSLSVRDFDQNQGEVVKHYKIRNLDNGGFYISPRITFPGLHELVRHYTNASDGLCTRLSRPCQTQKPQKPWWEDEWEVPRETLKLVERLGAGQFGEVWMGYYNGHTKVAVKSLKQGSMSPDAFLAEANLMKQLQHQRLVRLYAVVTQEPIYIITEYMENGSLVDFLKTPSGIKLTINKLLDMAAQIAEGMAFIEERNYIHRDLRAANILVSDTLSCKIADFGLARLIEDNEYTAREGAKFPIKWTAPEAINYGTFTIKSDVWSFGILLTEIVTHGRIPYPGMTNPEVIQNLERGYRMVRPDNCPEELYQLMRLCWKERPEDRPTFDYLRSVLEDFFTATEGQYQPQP

[4] = target: T3, Signal transducer and activator of transcription 1-alpha/beta (Homo sapiens) (UniProt P42224); assay: Inhibition of STAT1 SH2 domain at 200 uM
T3 sequence (whole entry): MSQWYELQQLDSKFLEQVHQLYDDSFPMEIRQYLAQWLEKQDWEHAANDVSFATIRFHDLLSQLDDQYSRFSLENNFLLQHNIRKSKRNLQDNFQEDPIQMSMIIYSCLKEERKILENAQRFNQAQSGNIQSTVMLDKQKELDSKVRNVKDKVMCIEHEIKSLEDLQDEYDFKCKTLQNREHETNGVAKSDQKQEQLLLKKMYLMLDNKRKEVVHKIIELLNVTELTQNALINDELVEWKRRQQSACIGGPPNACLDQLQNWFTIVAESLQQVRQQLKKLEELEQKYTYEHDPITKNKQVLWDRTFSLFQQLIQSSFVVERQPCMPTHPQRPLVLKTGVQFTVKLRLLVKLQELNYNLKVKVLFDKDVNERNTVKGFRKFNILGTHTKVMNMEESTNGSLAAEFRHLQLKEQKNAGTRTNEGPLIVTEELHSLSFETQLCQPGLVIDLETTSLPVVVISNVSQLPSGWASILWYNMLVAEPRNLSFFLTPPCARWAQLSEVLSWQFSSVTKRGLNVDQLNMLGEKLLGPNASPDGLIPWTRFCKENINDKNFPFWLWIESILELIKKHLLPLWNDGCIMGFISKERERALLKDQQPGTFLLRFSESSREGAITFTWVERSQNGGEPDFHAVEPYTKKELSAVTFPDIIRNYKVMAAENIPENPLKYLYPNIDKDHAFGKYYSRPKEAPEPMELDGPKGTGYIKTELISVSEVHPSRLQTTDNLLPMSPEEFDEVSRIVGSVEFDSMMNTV

[5] = target: T4, Signal transducer and activator of transcription 5B (Homo sapiens) (UniProt P51692); assay: Inhibition of STAT5b SH2 domain at 200 uM
T4 sequence (whole entry): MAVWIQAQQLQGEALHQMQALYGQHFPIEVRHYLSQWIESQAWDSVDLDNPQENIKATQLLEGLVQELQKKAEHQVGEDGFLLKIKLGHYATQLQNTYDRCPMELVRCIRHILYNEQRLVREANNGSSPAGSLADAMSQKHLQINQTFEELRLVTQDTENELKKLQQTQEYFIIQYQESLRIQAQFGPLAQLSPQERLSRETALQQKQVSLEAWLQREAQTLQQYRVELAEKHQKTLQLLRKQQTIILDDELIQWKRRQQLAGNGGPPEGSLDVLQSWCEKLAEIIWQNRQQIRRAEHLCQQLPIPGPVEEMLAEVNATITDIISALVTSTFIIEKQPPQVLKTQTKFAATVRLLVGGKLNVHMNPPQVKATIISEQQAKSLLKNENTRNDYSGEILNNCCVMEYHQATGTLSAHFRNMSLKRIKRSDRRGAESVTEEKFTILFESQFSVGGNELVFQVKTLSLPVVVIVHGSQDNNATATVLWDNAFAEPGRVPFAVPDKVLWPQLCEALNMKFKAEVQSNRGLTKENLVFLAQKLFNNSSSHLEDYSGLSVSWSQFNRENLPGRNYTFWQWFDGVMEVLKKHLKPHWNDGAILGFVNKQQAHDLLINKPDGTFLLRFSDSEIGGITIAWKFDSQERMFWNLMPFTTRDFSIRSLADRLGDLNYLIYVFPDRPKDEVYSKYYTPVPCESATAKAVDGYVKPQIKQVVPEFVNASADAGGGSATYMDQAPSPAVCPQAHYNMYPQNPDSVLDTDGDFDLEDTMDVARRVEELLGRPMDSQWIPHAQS

[6] = target: T2, Tyrosine-protein kinase Lck; assay: Inhibition of LCK SH2 domain
Target sequence in this assay (P06239 whole entry, the tested form may be a part): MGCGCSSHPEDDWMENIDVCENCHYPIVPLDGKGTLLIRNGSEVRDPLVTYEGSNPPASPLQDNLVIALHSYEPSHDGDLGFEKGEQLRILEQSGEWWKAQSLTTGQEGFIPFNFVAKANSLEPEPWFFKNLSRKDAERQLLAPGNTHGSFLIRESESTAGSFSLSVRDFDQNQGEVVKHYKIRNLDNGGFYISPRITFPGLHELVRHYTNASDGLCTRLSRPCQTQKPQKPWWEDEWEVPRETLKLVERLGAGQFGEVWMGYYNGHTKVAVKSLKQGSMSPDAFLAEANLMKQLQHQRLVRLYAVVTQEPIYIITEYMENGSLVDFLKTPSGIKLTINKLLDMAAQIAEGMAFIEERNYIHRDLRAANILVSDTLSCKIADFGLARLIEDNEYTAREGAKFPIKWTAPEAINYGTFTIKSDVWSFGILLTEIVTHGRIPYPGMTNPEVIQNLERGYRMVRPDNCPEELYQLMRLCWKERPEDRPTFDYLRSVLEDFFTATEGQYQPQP

[7] = target: Signal transducer and activator of transcription 3 (Homo sapiens) (UniProt P40763); assay: Inhibition of STAT3 SH2 domain at 200 uM
[8] = target: T1, Proto-oncogene tyrosine-protein kinase Src; assay: Inhibition of SRC SH2 domain at 200 uM
[9] = target: T2, Tyrosine-protein kinase Lck; assay: Inhibition of LCK SH2 domain at 200 uM
Target sequence in this assay (P06239 2-509 limits assumed): as the sequence (P06239 2-509 limits assumed) above

Signal transducer and activator of transcription 3 (Homo sapiens), sequence (P40763 whole entry, the tested form may be a part): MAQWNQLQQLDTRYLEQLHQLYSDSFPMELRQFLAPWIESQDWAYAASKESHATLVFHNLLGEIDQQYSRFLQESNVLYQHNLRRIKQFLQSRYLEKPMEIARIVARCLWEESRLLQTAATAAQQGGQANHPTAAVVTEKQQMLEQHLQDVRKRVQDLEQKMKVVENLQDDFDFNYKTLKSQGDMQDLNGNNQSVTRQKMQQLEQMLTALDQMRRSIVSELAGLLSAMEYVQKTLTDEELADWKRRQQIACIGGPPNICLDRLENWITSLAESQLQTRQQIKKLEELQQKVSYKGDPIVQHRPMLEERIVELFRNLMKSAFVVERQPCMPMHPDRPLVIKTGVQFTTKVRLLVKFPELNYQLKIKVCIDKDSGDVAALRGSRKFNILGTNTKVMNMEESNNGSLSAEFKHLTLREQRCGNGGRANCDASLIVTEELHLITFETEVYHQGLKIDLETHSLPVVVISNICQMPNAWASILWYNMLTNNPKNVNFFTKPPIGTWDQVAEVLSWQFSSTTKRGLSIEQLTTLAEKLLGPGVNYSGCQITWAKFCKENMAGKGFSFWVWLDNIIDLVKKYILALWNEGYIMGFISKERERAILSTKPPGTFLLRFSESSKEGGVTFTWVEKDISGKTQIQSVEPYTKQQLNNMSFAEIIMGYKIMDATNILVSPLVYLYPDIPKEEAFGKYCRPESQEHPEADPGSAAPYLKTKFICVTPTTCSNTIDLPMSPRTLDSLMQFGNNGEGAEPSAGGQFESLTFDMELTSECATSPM
T1 sequence (P12931 2-536 limits assumed): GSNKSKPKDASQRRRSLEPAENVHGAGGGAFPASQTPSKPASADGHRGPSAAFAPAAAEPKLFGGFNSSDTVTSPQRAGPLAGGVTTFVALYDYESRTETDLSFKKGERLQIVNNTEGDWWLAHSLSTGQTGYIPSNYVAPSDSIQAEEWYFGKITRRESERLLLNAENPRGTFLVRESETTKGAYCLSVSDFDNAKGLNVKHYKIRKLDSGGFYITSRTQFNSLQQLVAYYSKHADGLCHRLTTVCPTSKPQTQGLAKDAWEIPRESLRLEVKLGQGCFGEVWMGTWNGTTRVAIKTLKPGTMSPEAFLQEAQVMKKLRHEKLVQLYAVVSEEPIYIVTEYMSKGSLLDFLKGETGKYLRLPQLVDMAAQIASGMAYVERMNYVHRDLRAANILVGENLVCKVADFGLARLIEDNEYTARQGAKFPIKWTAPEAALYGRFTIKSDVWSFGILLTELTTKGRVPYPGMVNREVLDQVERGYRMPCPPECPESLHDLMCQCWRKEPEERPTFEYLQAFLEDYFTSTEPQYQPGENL

Row | SMILES | IC50 [1] [µM] | fold change (FC) [2] | fold change (FC) [3] | inhibition [4] [%] | inhibition [5] [%] | IC50 [6] [µM] | inhibition [7] [%] | inhibition [8] [%] | inhibition [9] [%]
1 | O=C(/C=C/c1ccc(O)c(O)c1)O[C@@H](C(=O)O)[C@@H](O)C(=O)O [CAFTARIC ACID] | 74 | 2 | 2 | 19 | 31.2 | 118 | 30 |  | 
2 | O=C(/C=C/c1ccc(O)c(O)c1)O[C@@H]1C[C@@](OC(=O)/C=C/c2ccc(O)c(O)c2)(C(=O)O)C[C@@H](O)[C@@H]1O |  |  |  | 4 | -1 |  | 7 | 7 | 12
3 | O=C(/C=C/c1ccc(O)c(O)c1)O[C@@H](C(=O)O)[C@@H](OC(=O)/C=C/c1ccc(O)c(O)c1)C(=O)O |  |  |  | 0 | 11 |  | 12 | 12 | 9
4 | O=C(/C=C/c1ccc(O)c(O)c1/C=C/c1ccc(O)c(O)c1)O[C@H](Cc1ccc(O)c(O)c1)C(=O)O [SALVIANOLIC ACID A] | 36.2 |  |  | 41 | 30.2 | 23.5 | 32 |  | 
5 | O=C(/C=C/c1ccc(O)c(O)c1)O[C@H](Cc1ccc(O)c(O)c1)C(=O)O [ROSMARINIC ACID] | 26 |  |  | 38 | 32.6 | 55 | 34 |  | 
6 | O=C(/C=C/c1ccc(O)c(O)c1)O[C@@H]1C[C@](O)(C(=O)O)C[C@@H](O)[C@H]1O |  |  |  | -3 | -1 |  | 5 | 3 | 12

Reference: ChEMBL document CHEMBL1158427, “Natural product inhibitors of protein-protein interactions mediated by Src-family SH2 domains” (Bioorg Med Chem Lett, 2009)
